The values that follow come from US7052865B1, “Identification of genes having a role in the presentation of diabetic nephropathy” (University College Dublin, National University of Ireland, …, priority 1999, dated 2006).

One experiment relates to CTGF. The experiment in a line: CTGF mRNA levels in mesangial cells by Northern Blot, Phosphor Imager quantification. Format: cell-based, human. An excerpt:
CTGF, is a 38 kD cysteine-rich secreted peptide known to modulate ECM production in some extrarenal cell types. In Example 1, SSH analysis identified a cDNA fragment of 250 bp which was identical to bases 814-1061 of the human CTGF cDNA. Induction of CTGF mRNA expression in primary human mesangial cells cultured in high glucose was investigated by Northern Blotting as shown in FIG. 1.
A 2.4 kb band was detected following hybridisation with the CTGF probe. All of the values were normalised to GAPDH levels and the results are representative of three independent experiments.
To assess the role of TGF-β1 as a stimulus for CTGF expression in response to high glucose, cells were incubated in either 5 mM glucose or 30 mM glucose plus 1 μl/ml anti-TGF-β1 antibody for seven days with three changes of medium. Cells were serum starved for 24 hr in RPMI 1640 and 0.5% FBS. 10 ng/ml TGF-β1 Calbiochem) or 10 ng/ml TGF-β1 preadsorbed with 1 μg/ml neutralising anti-TGF-β1 polyclonal antibody were subsequently added for 24 hr.
The role of PKC on CTGF expression in response to high glucose was investigated by culturing the mesangial cells in either 5 mM, 30 mM glucose or 30 mM glucose and the PKC inhibitor GF 102903X.
FIG. 7 is an autoradiograph of CTGF mRNA levels analysed by Northern Blot and depicts the results obtained when mesangial cells were exposed to TGF-β1 (10 ng/ml) for 24 hr in the presence (lane 3) and absence (lane 2) of anti-TGF-β1 neutralising antibody (1 μg/ml). Cells cultured in RPMI 1640 and 0.5% FBS for 24 hr served as control (lane 1). A 2.4 kb band was detected following hybridisation to the CTGF probe. The blot was stripped and reprobed with GAPDH. The relative amount of CTGF mRNA as estimated by Phosphor Imager quantification (FIG. 8). Values were normalised to GAPDH levels and the results are representative of two independent experiments.
FIG. 9 is an autoradiograph of CTGF mRNA levels analysed by Northern Blot and depicts the results obtained when mesangial cells were exposed to 5 mM glucose (lane 1), 30 mM glucose (lane 2) and 30 mM glucose in the presence of anti-TGF-β1 neutralising antibodies (1 μg/ml) (lane 3) for seven days. A 2.4 kb band was detected following hybridisation to the CTGF probe. The blot was stripped and probed with GAPDH. The relative amount of CTGF MRNA as estimated by Phosphor Imager quantification (FIG. 10). […]
FIG. 11 is an autoradiograph of CTGF mRNA levels analysed by Northern Blot and depicts the results obtained when mesangial cells were exposed to 5 mM glucose (lane 1), 30 mM glucose (lane 2) and 30 mM glucose in PKC inhibitor GF102903X (10 μM) (lane 3) for four days. A 2.4 kb band was detected following hybridisation to the CTGF probe. […] The relative amount of CTGF rnRNA as estimated by Phosphor Imager quantification (FIG. 12). […]

In experiment [1] the test system is primary human mesangial cells. The experiment in a line: Northern Blot of genes differentially induced in mesangial cells cultured in high glucose or mannitol (Table 1). Format: cell-based. Also noted: key to Differential Expression of IHG-1 mRNA: *: detected in mesangial cells cultured in 5 mM glucose+25 mM mannitol and 30 mM glucose, but not in 5 mM glucose. To be noted: 25 mM mannitol + 5 mM glucose, relative to 5 mM glucose. How it is done:
Primary human mesangial cells were cultured as previously reported (Brady, H. R., et al. (1992) Kidney Int. 42, 480-487 and Denton, M. D., et al. (1991) Am. J. Physiol. 261, F1071-F1079). Cells (passage 7-11) were maintained in medium (Clonetics) containing either 5 mM or 30 mM D-glucose for 7 days. Culture medium was replenished three times during this period to maintain glucose levels in the desired range. To control for the effects of hyperosmolarity, mesangial cells were cultured in media containing 5 mM glucose supplemented with 25 mM mannitol. […] Northern Blots performed using formaldehyde denaturation according to standard protocols and quantitated using a Phosphor Imager (Biorad) confirmed differential expression of fifteen of the sixteen subcloned fragments as indicated in Table 1. ^c refers to the differential expression of each gene based on Northern Blot analysis of primary human mesangial cells cultured under indicated conditions relative to expression in cells cultured in 5 mM glucose. Values were obtained by Phosphor-Imaging and were normalised by comparison with glyceraldehyde-3-phosphate dehydrogenase (GAPDH) (*, detected in mesangial cells cultured in 5 mM glucose+25 mM mannitol and 30 mM glucose, but not in 5 mM glucose, fold expression is degree of expression relative to that found in 5 mM glucose). Within a diabetic milieu, high glucose levels may perturb cellular function through glucose-specific actions or by increasing the osmolarity of extracellular fluids. The role of hyperosmolarity as a mediator of gene induction by high glucose was assessed by comparing mRNA levels, as determined by Northern Blot, in cells cultured in either 30 mM glucose or in 5 mM glucose supplemented with 25 mM mannitol. […] High glucose and mannitol-induced hyperosmolarity afforded equivalent induction of the other products.

The test system of another experiment is gremlin. The experiment in a line: Gremlin mRNA levels in mesangial cells by Northern Blot. Format: cell-based. To be noted: human recombinant TGF-β1 10 ng/ml, 24 h, serum restricted mesangial cells. As for the experimental part:
A) Primary cultures of human mesangial cells were propagated as described in Example 1, except that the medium was supplemented with 5% FBS. Treatment of cultures with glucose was carried out as described in Example 1. […]
Northern Blot analysis as described further below was performed on RNA extracted from mesangial cells grown in either 5 mM (‘normal’) or 30 mM (‘high’) glucose using the ORF of gremlin and IHG-2 probes. Both probes detected a 2-fold increase in gene expression under high glucose conditions as depicted in FIG. 16.
Northern Blots were performed using formaldehyde denaturation according to standard protocols and quantitated using a phosphorimager (Biorad). PCR products used to generate the probes for northern analysis were amplified using primers for the open reading frame (ORF) of gremlin (sense: […] (SEQ ID NO: 17); antisense […] (SEQ ID NO: 18)), and for IHG-2 (sense: […] (SEQ ID NO 19); antisense: […] (SEQ ID NO: 20)). Fibronectin and GAPDH probes were generated as described in Example 2
As indicated above, both high ambient glucose concentrations and cyclic mechanical strain provoke TGF-β1 production by mesangial cells in vitro and TGF-β1 appears to be a major stimulus for mesangial matrix accumulation in diabetic glomeruli in vivo. […]

The test system of the next experiment is mesangial cells. The experiment in a line: Effect of rhCTGF on mesangial cell matrix production (RT-PCR). Particulars: rhCTGF 8 ng/ml, 24 hr, serum starved mesangial cells. Format: cell-based, human. As for the experimental part: To investigate the direct effects of CTGF up-regulation on matrix production, in particular the effect on collagens I and IV and fibronectin, mesangial cells were incubated with recombinant CTGF protein.
Mesangial cells were serum starved for 24 hr in RPMI 1640 medium supplemented with 0.5 % fetal bovine serum (FBS) and then exposed to rhCTGF (8 ng/ml) (a generous gift from Dr. Gary Grotendorst) for 24 hr (Kreisberg, J. I. and Ayo, S. H. (1993). Kidney Int. 43, 109-113). Total RNA was extracted and chromosomal DNA was removed using DNase 1 (Gibco-BRL). Equal amounts of cDNA were subsequently amplified by PCR using specific primers for GAPDH (Gen/EMBL accession no. AJ005371, sense: […] (SEQ ID NO: 7); antisense: […] (SEQ ID NO: 8), Collagen I (Gen/EMBL accession no. X55525, sense: […] (SEQ ID NO: 9); antisense: […] (SEQ ID NO: 10)), Collagen IV (Gen/EMBL accession no. M11315, sense: […] (SEQ ID NO: 11); antisense: […] (SEQ ID NO: 12) and fibronectin (Gen/EMBL accession no. X0276 1, sense: CGAAATCACAGCCAGTAG (SEQ ID NO. 13), antisense: ATCACATCCACACGGTAG (SEQ ID NO: 14)).
FIG. 3 depicts ethidium-stained panels of a 2% (w/v) agarose gel containing 10 μl of each PCR reaction after electrophoresis.

`CN(C)CCCn1cc(C2=C(c3c[nH]c4ccccc34)C(=O)NC2=O)c2ccccc21` [GF102903X]: in the experiment with CTGF (30 mM glucose, four days, inhibitor 10 μM), the “effect on high glucose-induced CTGF expression” value is listed as “partial inhibition”. Also, the “effect on TGF-β1-induced CTGF expression” value in the experiment on CTGF (TGF-β1 10 ng/ml, 24 hr, antibody 1 μg/ml, GF102903X data not shown) is “without effect”.

For the molecule `OC[C@@H](O)[C@@H](O)[C@H](O)[C@H](O)CO` [mannitol], the “Differential Expression of IHG-1 mRNA” value in experiment [1] was “*”. Further, in experiment [1] (normalised to GAPDH), the “Differential Expression of ARP3 mRNA” value is listed as 1.0-fold, the “Differential Expression of CAP mRNA” value is 1.7-fold, the “Differential Expression of CTGF mRNA” value is reported as 1.5-fold and the “Differential Expression of Caldesmon mRNA” value is 2.8-fold. Further, in experiment [1] (normalised to GAPDH), the “Differential Expression of Fibronectin mRNA” value is 1.5-fold, the “Differential Expression of IHG-2 mRNA” value is reported as 2.0-fold, the “Differential Expression of MRLC mRNA” value was 1.6-fold and the “Differential Expression of PAI-1 mRNA (2.0 kb)” value is recorded as 1.0-fold. In experiment [1] (normalised to GAPDH), the “Differential Expression of PAI-1 mRNA (3.0 kb)” value is 2.0-fold, the “Differential Expression of Profilin mRNA” value was 2.3-fold, the “Differential Expression of RBM3 mRNA” value is reported as 1.4-fold and the “Differential Expression of T-plastin mRNA” value is reported as 1.8-fold. For the same molecule, in experiment [1] (normalised to GAPDH), the “Differential Expression of TCTP mRNA” value was 2.5-fold, the “Differential Expression of Thrombospondin mRNA” value was 8.0-fold and the “Differential Expression of Ubiquitin mRNA” value is listed as 1.7-fold. In addition, the “mesangial cell CTGF expression compared with high glucose” value in the experiment with CTGF (25 mM mannitol + 5 mM glucose versus 30 mM glucose, in vitro) was “less mesangial cell CTGF expression in vitro than high glucose”.

Take “TGF-β1: human recombinant transforming growth factor β1 (Calbiochem)”: the “induction of CTGF mRNA levels” value in the experiment with CTGF (TGF-β1 10 ng/ml, 24 hr, serum starved mesangial cells) is given as “potent inducer”. Moreover, in the experiment with gremlin, the “gremlin mRNA levels” value is “augmented”.

B1: rhCTGF: recombinant human connective tissue growth factor protein (protein, UniProt P29279 27-349, looked up)
CCN family member 2: QNCSGPCRCPDEPAPRCPAGVSLVLDGCGCCRVCAKQLGELCTERDPCDPHKGLFCHFGSPANRKIGVCTAKDGAPCIFGGTVYRSGESFQSSCKYQCTCLDGAVGCMPLCSMDVRLPSPDCPFPRRVKLPGKCCEEWVCDEPKDQTVVGPALAAYRLEDTFGPDPTMIRANCLVQTTEWSACSKTCGMGISTRVTNDNASCRLEKQSRLCMVRPCEADLEENIKKGKKCIRTPKISKPIKFELSGCTSMKTYRAKFCGVCTDGRCCTPHRTTTLPVEFKCPDGEVMKKNMMFIKTCACHYNCPGDNDIFESLYYRKMYGDMA
For the molecule B1, in the experiment on mesangial cells, the “mesangial cell collagens I and IV and fibronectin mRNA (RT-PCR)” value is listed as “up-regulates”.
